The source of these data is paper PMC3016878 (Chembiochem : a European journal of chemical biology, 2010).

The assay has as its target AAC(3)-IV; AAC(3) (Escherichia coli, UniProt Q306W4). Put plainly: UV-vis acetyltransferase assay, Michaelis-Menten. Format: biochemical. Conditions: co-substrate apramycin.

In the case of `CC(=O)SCCNC(=O)CCNC(=O)[C@H](O)C(C)(C)COP(=O)(O)OP(=O)(O)OC[C@H]1O[C@@H](n2cnc3c(N)ncnc32)[C@H](O)[C@@H]1OP(=O)(O)O` [AcCoA], the KM entry is “Michaelis-Menten plot for modification of apramycin by AcCoA and AzAcCoA”.
